In one assay the test system is HCT 116 cell line. Description: Cell inhibition assay (WST-1 proliferation). It is filed as cell-based. Conditions: Homo sapiens, 120 hrs incubation, read-out: Inhibitor Activity vs HCT 116 cell line. How it is done:
Cells were seeded in 96W tissue culture plates (1 well=30 mm^2) at a density of 500 cells per well in 50 μl of the appropriate culture medium (see below). 24 hrs later 50 μl of the compound prepared in the same medium was added as 4 fold dilutions to give final concentrations in the range 0.15 nM-2500 nM (n=6 for each concentration). The plates were then incubated at 37° C., 5% CO2 for 120 hrs. Cell proliferation was assessed using WST-1 (a metabolic indicator dye, Roche Cat no. 1 644 807) according to the manufacturers instructions. The results were calculated as percentage of vehicle response and IC50 values represent the concentration of compound that inhibited the vehicle response by 50%.
HCT-116 Culture Medium—Dulbeccos MEM (Sigma D6546) plus 10% heat inactivated fetal calf serum (Hyclone SH30071 Thermo Fischer Scientific) containing 2 mM Glutamine (Sigma cat no G-7513) and 50 U/ml Penicillin and Streptomycin Sulphate (Sigma Cat no P-0781).
A general note: Formazan colour is commonly taken as a measure of viable cells.

In the next assay the target is T1, PLK1 (Homo sapiens, UniProt P53350).
T1 construct: purchased Invitrogen (Paisley, UK), assay service
T1 sequence (P53350 whole entry): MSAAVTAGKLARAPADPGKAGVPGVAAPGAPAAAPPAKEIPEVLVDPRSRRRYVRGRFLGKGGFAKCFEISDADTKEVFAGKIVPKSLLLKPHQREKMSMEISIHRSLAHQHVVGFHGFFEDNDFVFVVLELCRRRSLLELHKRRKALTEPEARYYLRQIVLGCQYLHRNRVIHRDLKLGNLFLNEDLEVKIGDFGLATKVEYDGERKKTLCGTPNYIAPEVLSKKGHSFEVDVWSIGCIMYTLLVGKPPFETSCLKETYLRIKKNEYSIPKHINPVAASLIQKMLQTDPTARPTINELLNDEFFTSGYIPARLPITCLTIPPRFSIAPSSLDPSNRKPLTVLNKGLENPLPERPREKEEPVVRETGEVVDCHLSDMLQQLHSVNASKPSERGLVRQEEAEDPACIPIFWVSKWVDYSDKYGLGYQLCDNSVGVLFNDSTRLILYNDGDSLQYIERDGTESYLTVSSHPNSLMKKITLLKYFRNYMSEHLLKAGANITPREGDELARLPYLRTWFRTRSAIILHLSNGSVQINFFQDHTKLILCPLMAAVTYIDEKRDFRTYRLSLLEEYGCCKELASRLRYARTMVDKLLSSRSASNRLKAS
Put plainly: PLK1 enzyme assay (Z'-LYTE, Invitrogen). In kind it is biochemical. The note with it: ATP at or close to Km, 60 minute kinase reaction; read-out: Inhibitor Activity vs PLK1. How it is done: The ability of compounds to inhibit PLK-1 kinase activity was measured in an assay performed by Invitrogen (Paisley, UK). The Z′-LYTE™ biochemical assay employs a fluorescence-based, coupled-enzyme format and is based on the differential sensitivity of phosphorylated and non-phosphorylated peptides to proteolytic cleavage. The peptide substrate is labelled with two fluorophores—one at each end—that make up a FRET pair. In the primary reaction, the kinase transfers the gamma-phosphate of ATP to a single serine or threonine residue in a synthetic FRET-peptide. In the secondary reaction, a site-specific protease recognizes and cleaves non-phosphorylated FRET-peptides. Phosphorylation of FRET-peptides suppresses cleavage by the Development Reagent. Cleavage disrupts FRET between the donor (i.e., coumarin) and acceptor (i.e., fluorescein) fluorophores on the FRET-peptide, whereas uncleaved, phosphorylated FRET-peptides maintain FRET. A […] method, which calculates the ratio (the Emission Ratio) of donor emission to acceptor emission after excitation of the donor fluorophore at 400 nm, is used to quantitate reaction progress.
The final 10 μl Kinase Reaction consists of 2.8-25.3 ng PLK1, 2 μM Ser/Thr 16 Peptide substrate and ATP in 50 mM HEPES pH 7.5, 0.01% BRIJ-35, 10 mM MgCl2, 1 mM EGTA. The assay is performed at an ATP concentration at, or close to, the Km. After the 60 minute Kinase Reaction incubation at room temperature, 5 μl of a 1:8 dilution of Development Reagent is added. The assay plate is incubated for a further 60 minutes at room temperature and read on a fluorescence plate reader.
Duplicate data points are generated from a ⅓ log dilution series of a stock solution of test compound in DMSO. Nine dilutions steps are made from a top concentration of 10 μM, and a “no compound” blank is included. Data is collected and analysed using XLfit software from IDBS. The dose response curve is curve fitted to model number 205 (sigmoidal dose-response model). From the curve generated, the concentration giving 50% inhibition is determined and reported.

Molecules are shown by their SMILES. pIC50: −log10 of the molar value.

Take `CC[C@@H]1C(=O)N(C)c2cnc(Nc3ccc(C(=O)N[C@H]4CC[C@@H](CCC(=O)N[C@@H](CC(C)C)C(=O)OC5CCCC5)CC4)cc3OC)nc2N1C1CCCC1` [Example 17, Cyclopentyl N-(3-{cis-4-[(4-{[(7R)-8-cyclopentyl-7-ethyl-5-methyl-6-oxo-5,6,7,8-tetrahydropteridin-2-yl]amino}-3-methoxybenzoyl)amino]cyclohexyl}propanoyl)-L-leucinate]: the pIC50 in the assay on HCT 116 cell line and on PLK1 was greater than 7.00 each time.
For the compound `CC[C@@H]1C(=O)N(C)c2cnc(Nc3ccc(C(=O)NC4CCN(CC(=O)N[C@@H](CC(C)C)C(=O)OC5CCCC5)CC4)cc3OC)nc2N1C1CCCC1` [Example 7, Cyclopentyl N-({4-[(4-{[(7R)-8-cyclopentyl-7-ethyl-5-methyl-6-oxo-5,6,7,8-tetrahydropteridin-2-yl]amino}-3-methoxybenzoyl)amino]piperidin-1-yl}acetyl)-L-leucinate], the figures for the pIC50 in the assay on HCT 116 cell line and on PLK1 were greater than 7.00 and 6.30 to 7.00, respectively.
On the same counts, the results for `CC[C@@H]1C(=O)N(C)c2cnc(Nc3ccc(C(=O)NC4CCN(CCCC(=O)N[C@@H](CC(C)C)C(=O)OC5CCCC5)CC4)cc3OC)nc2N1C1CCCC1` [Example 1, Cyclopentyl N-(4-{4-[(4-{[(7R)-8-cyclopentyl-7-ethyl-5-methyl-6-oxo-5,6,7,8-tetrahydropteridin-2-yl]amino}-3-methoxybenzoyl)amino]piperidin-1-yl}butanoyl)-L-leucinate] are greater than 7.00 and greater than 7.00.
The corresponding values for `CC[C@@H]1C(=O)N(C)c2cnc(Nc3ccc(C(=O)NC4CCN(CCOC(=O)N[C@@H](CC(C)C)C(=O)OC5CCCC5)CC4)cc3OC)nc2N1C1CCCC1` [Example 11, Cyclopentyl N-[(2-{4-[(4-{[(7R)-8-cyclopentyl-7-ethyl-5-methyl-6-oxo-5,6,7,8-tetrahydropteridin-2-yl]amino}-3-methoxybenzoyl)amino]piperidin-1-yl}ethoxy)carbonyl]-L-leucinate] are greater than 7.00 and greater than 7.00.
The corresponding values for `CC[C@@H]1C(=O)N(C)c2cnc(Nc3ccc(C(=O)NCCCC(=O)N[C@@H](CC(C)C)C(=O)OC4CCCC4)cc3OC)nc2N1C1CCCC1` [Example 13, Cyclopentyl N-{4-[(4-{[(7R)-8-cyclopentyl-7-ethyl-5-methyl-6-oxo-5,6,7,8-tetrahydropteridin-2-yl]amino}-3-methoxybenzoyl)amino]butanoyl}-L-leucinate] are 6.30 to 7.00 and 6.30 to 7.00.
In the case of `CC[C@@H]1C(=O)N(C)c2cnc(Nc3ccc(C(=O)NC4CCN(CCCC(=O)N[C@@H](C(=O)OC5CCCC5)c5ccccc5)CC4)cc3OC)nc2N1C1CCCC1` [Example 4, Cyclopentyl (2R)-[(4-{4-[(4-{[(7R)-8-cyclopentyl-7-ethyl-5-methyl-6-oxo-5,6,7,8-tetrahydropteridin-2-yl]amino}-3-methoxybenzoyl)amino]piperidin-1-yl}butanoyl)amino](phenyl)acetate], the pIC50 in the assay on HCT 116 cell line and at PLK1 was greater than 7.00 throughout.
For the compound `CC[C@@H]1C(=O)N(C)c2cnc(Nc3ccc(/C=C/CCCC(=O)N[C@@H](CC(C)C)C(=O)OC4CCCC4)cc3F)nc2N1C1CCCC1` [Example 14, Cyclopentyl N-[(5E)-6-(4-{[(7R)-8-cyclopentyl-7-ethyl-5-methyl-6-oxo-5,6,7,8-tetrahydropteridin-2-yl]amino}-3-fluorophenyl)hex-5-enoyl]-L-leucinate], the pIC50 in the assay on HCT 116 cell line was less than 6.30; on PLK1, 6.30 to 7.00.
On the same counts, the results for `CC[C@@H]1C(=O)N(C)c2cnc(Nc3ccc(C(=O)NC4CCN(CCNC(=O)N[C@H](C(=O)OC5CCCC5)C5CCCCC5)CC4)cc3OC)nc2N1C1CCCC1` [Example 10, Cyclopentyl (2S)-cyclohexyl{[(2-{4-[(4-{[(7R)-8-cyclopentyl-7-ethyl-5-methyl-6-oxo-5,6,7,8-tetrahydropteridin-2-yl]amino}-3-methoxybenzoyl)amino]piperidin-1-yl}ethyl)carbamoyl]amino}acetate] are greater than 7.00 and 6.30 to 7.00.
The corresponding values for `CC[C@@H]1C(=O)N(C)c2cnc(Nc3ccc(C(=O)NC4CCN(CCCCC(=O)N[C@@H](CC(C)C)C(=O)OC5CCCC5)CC4)cc3OC)nc2N1C1CCCC1` [Example 6, Cyclopentyl N-(5-{4-[(4-{[(7R)-8-cyclopentyl-7-ethyl-5-methyl-6-oxo-5,6,7,8-tetrahydropteridin-2-yl]amino}-3-methoxybenzoyl)amino]piperidin-1-yl}pentanoyl)-L-leucinate] are greater than 7.00 and greater than 7.00.
The corresponding values for `CC[C@@H]1C(=O)N(C)c2cnc(Nc3ccc(C(=O)NC4CCN(CCCC(=O)N[C@H](CC(C)C)C(=O)OC5CCCC5)CC4)cc3OC)nc2N1C1CCCC1` [Example 2, Cyclopentyl N-(4-{4-[(4-{[(7R)-8-cyclopentyl-7-ethyl-5-methyl-6-oxo-5,6,7,8-tetrahydropteridin-2-yl]amino}-3-methoxybenzoyl)amino]piperidin-1-yl}butanoyl)-D-leucinate] are greater than 7.00 and greater than 7.00.
On to `CC[C@@H]1C(=O)N(C)c2cnc(Nc3ccc(CCCCCC(=O)N[C@@H](CC(C)C)C(=O)OC4CCCC4)cc3F)nc2N1C1CCCC1` [Example 15, Cyclopentyl N-[6-(4-{[(7R)-8-cyclopentyl-7-ethyl-5-methyl-6-oxo-5,6,7,8-tetrahydropteridin-2-yl]amino}-3-fluorophenyl)hexanoyl]-L-leucinate], for which the pIC50 in the assay on HCT 116 cell line and at PLK1 was less than 6.30 each time.
Turning to `CC[C@@H]1C(=O)N(C)c2cnc(Nc3c(F)cc(/C=C/CCCC(=O)N[C@@H](CC(C)C)C(=O)OC4CCCC4)cc3F)nc2N1C1CCCC1` [Example 16, Cyclopentyl N-[(5E)-6-(4-{[(7R)-8-cyclopentyl-7-ethyl-5-methyl-6-oxo-5,6,7,8-tetrahydropteridin-2-yl]amino}-3,5-difluorophenyl)hex-5-enoyl]-L-leucinate], the pIC50 with HCT 116 cell line is less than 6.30; on PLK1 it was 6.30 to 7.00.
On the same counts, the results for `CC[C@@H]1C(=O)N(C)c2cnc(Nc3ccc(C(=O)NC4CCN(CCNC(=O)N[C@H](C(=O)OC5CCCC5)c5ccccc5)CC4)cc3OC)nc2N1C1CCCC1` [Example 9, Cyclopentyl (2S)-{[(2-{4-[(4-{[(7R)-8-cyclopentyl-7-ethyl-5-methyl-6-oxo-5,6,7,8-tetrahydropteridin-2-yl]amino}-3-methoxybenzoyl)amino]piperidin-1-yl}ethyl)carbamoyl]amino}(phenyl)acetate] are greater than 7.00 and greater than 7.00.

The record behind these values is US20100004250A1, “PTERIDINE DERIVATIVES AS POLO-LIKE KINASE INHIBITORS USEFUL IN THE TREATMENT OF CANCER” (CHROMA THERAPEUTICS LTD., priority 2006, published 2010).
